Data published in ChEMBL document CHEMBL1201862, “PubChem BioAssay data set” (2004).
Active and inactive are the calls of the source.

How the values were obtained:
[1] = Luminescence-based cell-based high throughput dose response assay to identify activators of the DAF-12 from the parasite S. stercoralis (ssDAF-12).; type: functional
[2] = target: T1, Oxysterols receptor LXR-beta (Homo sapiens, UniProt P55055); type: functional, cell-based;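 further: Cell-based luminescence dose-response assay of agonist activity at LXR, run as a confirmatory counterscreen to a daf-12 agonist screen; agonist potency from rising luciferase signal of a Gal4-LXR reporter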
T1 sequence (P55055 whole entry): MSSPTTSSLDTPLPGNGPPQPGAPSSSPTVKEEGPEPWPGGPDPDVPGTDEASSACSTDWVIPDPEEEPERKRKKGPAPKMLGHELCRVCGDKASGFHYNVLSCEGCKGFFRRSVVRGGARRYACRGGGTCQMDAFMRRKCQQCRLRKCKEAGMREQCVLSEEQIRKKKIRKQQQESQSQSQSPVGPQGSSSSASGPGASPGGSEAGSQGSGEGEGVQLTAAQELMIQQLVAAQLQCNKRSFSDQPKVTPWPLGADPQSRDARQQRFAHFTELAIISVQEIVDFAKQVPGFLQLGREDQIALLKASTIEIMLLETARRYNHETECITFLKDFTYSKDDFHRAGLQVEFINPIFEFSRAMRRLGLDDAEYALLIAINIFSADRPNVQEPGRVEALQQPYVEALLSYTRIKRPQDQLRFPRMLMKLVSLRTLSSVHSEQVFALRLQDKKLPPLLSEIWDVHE

[3] = target: T1, Oxysterols receptor LXR-beta; assay: LXR agonists, Gal4 luciferase reporter, dose response, counter-screen for ssDAF-12 agonist project, cell-based, luminescence, HEK293, S. stercoralis campaign (AID 720737); type: functional; conditions: read-out: IC50 (the source's name)
[4] = Jurkat T cell cytotoxicity, dose response, cytotoxicity control for P. falciparum gametocyte viability project, luminescence (AID 1117277); type: functional, cell-based;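 further: potency reflects loss of cellular ATP meaning fewer viable cells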
[5] = P. falciparum late gametocyte killing, dose response, luminescence (AID 1117278); type: functional, cell-based;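 further: gametocytes exposed to compound for 24 hours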
HEK293 [6] = assay: cells; type: functional, cell-based; conditions: Homo sapiens
HEK293 [7] = assay: cells; type: functional, cell-based; conditions: Homo sapiens; remark: listed apart in the source
HEK293 [8] = assay: NOD1 signaling inhibitors, primary screen, cell-based, luminescence, uHTS (AID 1578); type: functional; conditions: Homo sapiens
[9] = Vero cell cytotoxicity, dose response, cytotoxicity control for Vif-APOBEC3G degradation inhibitor project, Vero cells (AID 1117358); type: functional; conditions: Human immunodeficiency virus 1, Vero
HEK293 [10] = assay: NOD2 signaling inhibitors in MDP-stimulated cells, cell-based, uHTS, luminescence (AID 2001); type: functional; conditions: Homo sapiens
[11] = target: RNA-editing ligase 1, mitochondrial (Trypanosoma brucei brucei, UniProt P86926); assay: TbREL1 ligase inhibitors, dose response, biochemical, fluorescence, Trypanosoma brucei (AID 1117295); type: functional
[12] = target: T2, RNA-binding protein pos-1 (Caenorhabditis elegans, UniProt G5EF15); assay: inhibitors of POS-1/mex-3 RNA binding, dose response, biochemical, fluorescence polarization (AID 1964);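 further: purified POS-1 fused to maltose binding protein made in E. coli; potency of compounds blocking POS-1 binding to fluorescent RNA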
T2 sequence (G5EF15 whole entry): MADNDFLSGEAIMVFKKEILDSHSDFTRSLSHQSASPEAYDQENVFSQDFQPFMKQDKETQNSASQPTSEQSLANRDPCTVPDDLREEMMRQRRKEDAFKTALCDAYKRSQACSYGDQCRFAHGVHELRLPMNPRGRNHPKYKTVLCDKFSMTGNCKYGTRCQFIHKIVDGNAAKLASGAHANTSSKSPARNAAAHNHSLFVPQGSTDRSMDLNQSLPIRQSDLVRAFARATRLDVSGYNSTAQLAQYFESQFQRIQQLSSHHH

Aminopeptidase N = target: T3, Aminopeptidase N (Plasmodium falciparum FcB1/Columbia, UniProt O96935); assay: P. falciparum M1AAP inhibitors, biochemical, fluorogenic H-Leu-NHMec substrate, 1536-well (AID 1445); parameters: species or system Plasmodium falciparum 3D7, 3D7
T3 sequence (O96935 whole entry): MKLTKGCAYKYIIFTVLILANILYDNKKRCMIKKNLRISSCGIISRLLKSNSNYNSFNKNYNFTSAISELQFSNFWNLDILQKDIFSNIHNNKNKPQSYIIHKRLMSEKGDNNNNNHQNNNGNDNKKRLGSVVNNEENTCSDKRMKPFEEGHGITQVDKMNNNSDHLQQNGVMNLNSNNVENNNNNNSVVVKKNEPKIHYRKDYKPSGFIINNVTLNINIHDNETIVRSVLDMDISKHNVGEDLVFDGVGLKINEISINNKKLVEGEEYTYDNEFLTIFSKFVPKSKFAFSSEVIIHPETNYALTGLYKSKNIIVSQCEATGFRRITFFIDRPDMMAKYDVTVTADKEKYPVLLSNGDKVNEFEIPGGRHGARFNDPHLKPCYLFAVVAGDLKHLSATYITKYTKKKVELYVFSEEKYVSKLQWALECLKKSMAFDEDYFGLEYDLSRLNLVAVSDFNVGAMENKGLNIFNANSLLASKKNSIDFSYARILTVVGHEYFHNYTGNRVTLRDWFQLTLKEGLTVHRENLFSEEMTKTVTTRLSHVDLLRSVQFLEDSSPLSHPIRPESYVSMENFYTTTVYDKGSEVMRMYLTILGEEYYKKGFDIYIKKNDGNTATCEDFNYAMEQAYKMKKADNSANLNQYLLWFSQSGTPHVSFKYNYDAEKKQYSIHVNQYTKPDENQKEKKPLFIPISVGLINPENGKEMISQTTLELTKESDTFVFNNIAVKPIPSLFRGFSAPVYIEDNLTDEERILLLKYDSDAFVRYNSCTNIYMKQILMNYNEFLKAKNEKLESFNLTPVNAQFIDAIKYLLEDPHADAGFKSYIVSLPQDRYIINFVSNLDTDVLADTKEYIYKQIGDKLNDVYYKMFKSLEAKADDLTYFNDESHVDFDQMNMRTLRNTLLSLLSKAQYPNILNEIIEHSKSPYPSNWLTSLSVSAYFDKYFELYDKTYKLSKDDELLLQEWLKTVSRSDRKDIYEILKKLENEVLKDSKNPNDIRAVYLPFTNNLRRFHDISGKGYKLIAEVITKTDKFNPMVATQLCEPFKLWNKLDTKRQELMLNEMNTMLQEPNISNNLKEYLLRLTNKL

[13] = target: T4, Zinc finger protein mex-5 (Caenorhabditis elegans, UniProt Q9XUB2); assay: MEX-5/TCR-2 RNA interaction inhibitors, dose response, biochemical, C. elegans, fluorescence polarization (AID 1960)
T4 sequence (Q9XUB2 whole entry): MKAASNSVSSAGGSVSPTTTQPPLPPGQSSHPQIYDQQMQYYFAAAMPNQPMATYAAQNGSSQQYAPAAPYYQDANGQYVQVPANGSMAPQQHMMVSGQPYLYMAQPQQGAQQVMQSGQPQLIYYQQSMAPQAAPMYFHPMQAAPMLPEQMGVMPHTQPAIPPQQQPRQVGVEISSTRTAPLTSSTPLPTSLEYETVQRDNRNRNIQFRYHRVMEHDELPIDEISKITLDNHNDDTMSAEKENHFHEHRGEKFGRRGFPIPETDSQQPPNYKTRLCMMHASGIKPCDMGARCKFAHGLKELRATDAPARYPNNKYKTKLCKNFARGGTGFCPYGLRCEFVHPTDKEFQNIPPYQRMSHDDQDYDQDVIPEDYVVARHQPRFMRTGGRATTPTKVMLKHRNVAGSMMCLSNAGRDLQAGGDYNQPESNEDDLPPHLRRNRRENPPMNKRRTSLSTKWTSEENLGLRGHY

Albumin = Albumin (Bos taurus, UniProt P02769); assay: Counterscreen for inhibitors of T-cell receptor (TCR)-CD3 interaction: Fluorescence-based biochemical high throughput dose response assay to identify inhibitors of T-cell receptor (TCR)-CD3 interaction using a TAMRA-labeled BSA probe.; type: functional
Sequence of Albumin (P02769 whole entry): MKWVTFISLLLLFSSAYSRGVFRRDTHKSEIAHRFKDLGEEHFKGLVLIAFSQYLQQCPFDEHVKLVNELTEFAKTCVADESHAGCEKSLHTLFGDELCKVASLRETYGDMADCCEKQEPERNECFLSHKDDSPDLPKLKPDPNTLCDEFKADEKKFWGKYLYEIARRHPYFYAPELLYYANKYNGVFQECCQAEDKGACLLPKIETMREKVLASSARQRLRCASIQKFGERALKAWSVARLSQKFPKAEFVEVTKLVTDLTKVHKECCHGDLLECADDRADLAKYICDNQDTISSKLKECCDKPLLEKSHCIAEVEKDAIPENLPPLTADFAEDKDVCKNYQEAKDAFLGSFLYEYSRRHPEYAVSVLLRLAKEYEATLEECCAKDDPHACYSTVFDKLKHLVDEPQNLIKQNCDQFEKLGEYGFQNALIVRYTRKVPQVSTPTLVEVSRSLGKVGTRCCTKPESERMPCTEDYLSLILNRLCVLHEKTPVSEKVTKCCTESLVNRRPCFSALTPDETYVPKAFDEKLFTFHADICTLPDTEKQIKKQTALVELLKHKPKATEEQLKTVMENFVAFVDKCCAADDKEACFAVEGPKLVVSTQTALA

Sequence of RNA-editing ligase 1, mitochondrial (P86926 whole entry, the tested form may be a part): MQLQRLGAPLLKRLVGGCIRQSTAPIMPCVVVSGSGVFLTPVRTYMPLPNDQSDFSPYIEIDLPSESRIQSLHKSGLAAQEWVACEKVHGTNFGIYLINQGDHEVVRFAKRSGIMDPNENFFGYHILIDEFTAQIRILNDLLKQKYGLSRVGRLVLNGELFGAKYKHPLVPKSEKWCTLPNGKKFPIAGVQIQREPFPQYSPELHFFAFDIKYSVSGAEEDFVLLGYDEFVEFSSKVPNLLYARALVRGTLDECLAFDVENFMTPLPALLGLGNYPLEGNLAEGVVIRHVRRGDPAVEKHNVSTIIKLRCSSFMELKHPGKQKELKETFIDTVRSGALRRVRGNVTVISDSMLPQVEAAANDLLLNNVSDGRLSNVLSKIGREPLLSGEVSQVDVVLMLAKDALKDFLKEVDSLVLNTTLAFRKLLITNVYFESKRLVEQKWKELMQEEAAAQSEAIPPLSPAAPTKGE

In the case of `COc1ccc(-c2cc(-c3ccccc3O)[nH]n2)cc1`, the IC50 [1] is reported as > 67.6 µM (inactive), the EC50 [2] is reported as > 67.6 µM (inactive) and the EC50 (cells) is reported as > 67.6 µM (inactive). For the same molecule, the EC50 [3] was > 67.6 µM (inactive).
For `CC(C)Cc1nnc(NC(=O)CSc2nc(O)c(-c3ccccc3)c(O)n2)s1`, the IC50 [4] was > 83.3 µM (inactive) and the IC50 [5] was > 109 µM (inactive).
For `COc1ccc(NC(=O)c2cccc(S(=O)(=O)Nc3ccc(Br)cc3)c2)cn1`, the IC50 (HEK293 [6]) was > 20 µM (inactive), the IC50 (HEK293 [7]) was 17.3 µM (active) and the EC50 (HEK293 [8]) was 11.2 µM (active). For the same molecule, the CC50 [9] was 22.8 µM (active) and the IC50 (HEK293 [10]) was 8.65 µM (active).
For `Cc1n[nH]c(S/C(=C/c2ccc(-c3ccc(C(=O)O)cc3)o2)C(=O)O)n1`, the IC50 [11] was 77.9 µM (inactive), the EC50 [12] was 4.1 µM (active) and the IC50 (Aminopeptidase N) was 18.5 µM (active). For the same molecule, the EC50 [13] was 1.45 µM (active) and the IC50 (Albumin) was > 94.2 µM (inactive).
